Laboratory results as given in publication PMC8154557 (Journal of Medicinal Chemistry, 2021).

Legend:
T84 cells [1] = test: Viability MTT assay; details: 10%, positive control, 24 h
T84 cells [2] = test: TEER measurement of epithelial integrity; details: 10%, positive control, 24 h
Stx1B = Stx1B (Shigella dysenteriae, UniProt Q7BQ98); test: biochemical; type: binding, Escherichia coli
Sequence of Stx1B (Q7BQ98 21-89 limits assumed): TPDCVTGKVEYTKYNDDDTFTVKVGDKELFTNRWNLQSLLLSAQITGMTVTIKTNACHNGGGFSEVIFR

CCO [ethanol]
T84 cell viability (MTT) (T84 cells [1]): significantly reduced
transepithelial electrical resistance (TEER) values (T84 cells [2]): strongly decreased

[N-]=[N+]=N[C@@H]1O[C@H](CO)[C@H](O[C@H]2O[C@H](CO)[C@H](O)[C@H](O)[C@H]2O)[C@H](O)[C@H]1O [Compound 1e]
rel. pot. per sugar (Stx1B): 1

O=C(O)c1cc(OCc2cn([C@@H]3O[C@H](CO)[C@H](O[C@H]4O[C@H](CO)[C@H](O)[C@H](O)[C@H]4O)[C@H](O)[C@H]3O)nn2)cc(OCc2cn([C@@H]3O[C@H](CO)[C@H](O[C@H]4O[C@H](CO)[C@H](O)[C@H](O)[C@H]4O)[C@H](O)[C@H]3O)nn2)c1 [Compound 3]
rel. pot. per sugar (Stx1B): 2.3
rel.pot. (Stx1B): 4.6
IC50 (Stx1B; IC50): 1000 µM

O=C(NCCOc1cc(OCCNC(=O)OCc2cn([C@@H]3O[C@H](CO)[C@H](O[C@H]4O[C@H](CO)[C@H](O)[C@H](O)[C@H]4O)[C@H](O)[C@H]3O)nn2)cc(C(=O)O)c1)OCc1cn([C@@H]2O[C@H](CO)[C@H](O[C@H]3O[C@H](CO)[C@H](O)[C@H](O)[C@H]3O)[C@H](O)[C@H]2O)nn1 [Compound 4]
rel. pot. per sugar (Stx1B): 2
rel.pot. (Stx1B): 4

O=C(O)c1cc(OCCNC(=O)c2cc(OCc3cn([C@@H]4O[C@H](CO)[C@H](O[C@H]5O[C@H](CO)[C@H](O)[C@H](O)[C@H]5O)[C@H](O)[C@H]4O)nn3)cc(OCc3cn([C@@H]4O[C@H](CO)[C@H](O[C@H]5O[C@H](CO)[C@H](O)[C@H](O)[C@H]5O)[C@H](O)[C@H]4O)nn3)c2)cc(OCCNC(=O)c2cc(OCc3cn([C@@H]4O[C@H](CO)[C@H](O[C@H]5O[C@H](CO)[C@H](O)[C@H](O)[C@H]5O)[C@H](O)[C@H]4O)nn3)cc(OCc3cn([C@@H]4O[C@H](CO)[C@H](O[C@H]5O[C@H](CO)[C@H](O)[C@H](O)[C@H]5O)[C@H](O)[C@H]4O)nn3)c2)c1 [Compound 5]
rel. pot. per sugar (Stx1B): 62.5
rel.pot. (Stx1B): 250

O=C(NCCCCCCCCCCCCNC(=O)c1cc(OCc2cn([C@@H]3O[C@H](CO)[C@H](O[C@H]4O[C@H](CO)[C@H](O)[C@H](O)[C@H]4O)[C@H](O)[C@H]3O)nn2)cc(OCc2cn([C@@H]3O[C@H](CO)[C@H](O[C@H]4O[C@H](CO)[C@H](O)[C@H](O)[C@H]4O)[C@H](O)[C@H]3O)nn2)c1)c1cc(OCc2cn([C@@H]3O[C@H](CO)[C@H](O[C@H]4O[C@H](CO)[C@H](O)[C@H](O)[C@H]4O)[C@H](O)[C@H]3O)nn2)cc(OCc2cn([C@@H]3O[C@H](CO)[C@H](O[C@H]4O[C@H](CO)[C@H](O)[C@H](O)[C@H]4O)[C@H](O)[C@H]3O)nn2)c1 [Compound 6]
rel. pot. per sugar (Stx1B): 92
rel.pot. (Stx1B): 367

OC[C@H]1O[C@@H](O[C@H]2[C@H](O)[C@@H](O)C(O)O[C@@H]2CO)[C@H](O)[C@@H](O)[C@H]1O (mixture of isomers) [Lactose, reference compound]
inhibition of the toxin (in words) (Stx1B): did not show any activity
